Results taken from US9919000B2, “Altering cancer cellular functions through proton mopping” (priority 2013, dated 2018).

Columns and labels:
mouse 4T1 breast tumor = test: In vivo syngeneic mouse 4T1 breast tumor study; design: species or system Balb/c mice
Text: The Purpose: to assess the anti-tumor activity of the existing compound, C12H25NO8, PEGylated amine functionalized glycoside, 2-[2(2-Aminoethoxy)ethoxy]ethyl a-D-mannopyranoside, on a model of mouse 4T1 breast tumor in Balb/C mice.
Animal and Facility: healthy female Balb/c (5-6 weeks old), purchased from Harlan Laboratories, were allowed to acclimate for 3 days in a specific pathogen free animal facility. Animal housing, handling and procedures were followed according to the protocols and guidelines approved by the lab's Institutional Animal Care and Use Committee (IACUC).
In Vivo Syngeneic Tumor Study Design: Murine 4T1 breast tumor cells were kept in RPMI-1640 medium containing 10% FBS and 1% Pen/Strep. On the day of inoculation, the cells were harvested according to standard protocol (Beth Pulaski) and re-suspended in PBS at the cell concentration of 2.5×10^5 cells/ml. Each animal was injected with 0.1 ml of the cell solution into the right flank of Balb/c mice following the SOP. On the 8th day post-inoculation, all tumor volumes were measured and the animals were divided into two groups, control and treated.
Study Design: to deliver a predetermined dose of the compound intravenously for 5 days.
Study Objective: to observe clinically the reduction of the size of the tumors using calipers (our “biomarker”).[FIG. 2]
(§1) Treatment: the tested compound was prepared right before dosing on day 8 after 4T1 inoculation. Each mouse received a predetermined dose of either the compound or saline intravenously daily for 5 consecutive days. The mice tumor volumes and mice body weights were monitored every other day along with other general behavior factors.
(§2) Endpoints: animal was euthanized if one of the following conditions was identified: • its neoplasm reached the predetermined 1000 cubic mms • the animal became moribund • body weight lost more than 20% of its original weight

[1] = Tolerability in the 4T1 tumor study (body weight, general behavior); assay type: in vivo; settings: intravenous daily dosing for 5 consecutive days, tumor-bearing Balb/c mice
Procedure: as §1, §2

For NCCOCCOCCO[C@H]1OC(CO)[C@@H](O)[C@H](O)C1O (stereo partly drawn) [compound 5, 1-(2-(2-(2-Aminoethoxy)ethoxy)ethoxy-D-mannopyranoside], the “maximal tumor growth inhibition index (TIC ratio)” value (mouse 4T1 breast tumor; by day 10, intravenously daily for 5 consecutive days from day 8 after 4T1 inoculation, tumor size by calipers) was “around 48%”, the “4T1 tumor growth in the treated group” value (mouse 4T1 breast tumor; during treatment (day 8 to day 12), control tumors doubled every 2-3 days) was “grew slowly” and the tumor reduction (mouse 4T1 breast tumor; syngeneic mouse breast cancer model, FIG. 1) was 48%. For the same molecule, the “toxic effects / tolerability” value [1] was “no toxic effects were observed”.
